Ends that are not written are not given here.
How the values were obtained:
[1] = test system: mice infected with H3N2 influenza (A/x31) and challenged with poly I:C; assay: Model of ARDS associated to influenza A virus (IAV) infection with Poly I:C challenge, BAL cells, cytokines, lung viral titre; format: in vivo; details: for Lymphocyte infiltration / Macrophage infiltration / Neutrophil infiltration: SEQ ID NO:1 80-800 μg/Kg iv q.d., Dex 10 mg/kg ip q.d.; for BAL Lymphocytes / BAL Macrophages / BAL Neutrophils: IAV/Poly I:C, 48 hrs after Poly I:C
Method: Mice were infected intranasally with a H3N2 strain of influenza (A/x31; 1×10^3 pfu). Three days after infection (time of peak viral load in the lung), animals received a dose of the viral mimetic polyinosinic-polycytidylic acid (poly I:C) or vehicle (PBS). Initially, dose response and time course studies with Poly I:C were done to establish conditions to show exacerbated lung inflammation after viral challenge (30 μg/animal and 48 hrs after Poly I:C challenge, respectively). SEQ ID NO:1 (80-800 μg/Kg) or vehicle were administered q.d. intravenously, 15 min before Poly I:C and 24 hrs later. Positive control Dexamethasone (Dex) was administered q.d. intraperitoneally (10 mg/kg) 1 hr before poly I:C challenge and 24 hrs later. 48 hrs after Poly I:C challenge, bronchoalveolar lavage (BAL) fluid was collected for differential cell counts and to measure cytokines using a multiplex immunoassay. Lung tissue was also collected to determine the viral titre.

[2] = test system: animal model of allergic airway inflammation; details: disclosed in WO2009/106819; cited from earlier work
[3] = test system: HDM-induced pulmonary inflammation in Balb/C mice; assay: House dust mite (HDM)-induced pulmonary inflammation, 3 week i.n. HDM sensitisation model, BAL cell influx and cytokines; format: in vivo
Method: The objective of the study was to investigate the inhibitory effects of 3 different concentrations of the peptides in a saline solution on house dust mite (HDM)-induced pulmonary inflammation in Balb/C mice using a 3 week intranasal (i.n.) HDM sensitisation model. Results are shown for SEQ ID NO: 1. This study also looked at time point effects of SEQ ID NO: 1; in addition to 7 day post HDM challenge, a further time point, 4 h post a second HDM challenge (14 days after the first HDM challenge), was investigated to assess the effects of SEQ ID NO: 1 on remission of the allergic response.
A 3 week sensitisation and challenge model was applied where n=90 female Balb/C mice of approximately 6-8 weeks of age, approximately 20-25 g at start of study were used.
Following 11 days' acclimatisation all mice received 25 μg (total protein) HDM delivered i.n. 5 days/week for 3 weeks. HDM sensitisation was carried out each day of dosing and all intranasal dosing was performed where the mice were lightly anaesthetised using isoflurane.
Two weeks after the final HDM sensitisation dose all mice received a single 50 μL i.n. dose of a saline solution of the peptide or saline (0.9% w/v Sodium Chloride) vehicle solution. For SEQ ID NO: 1, dose solutions were 0.02 μg/kg, 0.2 μg/kg and 2 μg/kg. 15 minutes post peptide or saline vehicle dose all mice received a single 50 uL challenge administered i.n. of saline (0.9% w/v Sodium Chloride) or 100 μg HDM.
Some groups of animals received a second 50 μL i.n. administered dose of either saline or HDM 100 μg dose four weeks post sensitisation. Animals were then euthanised 4 hrs post second challenge (corresponding to 14 days post dosing).
The lungs were lavaged via the trachea with 1 mL of BAL (bronchoalveolar lavage) fluid. Samples were placed on wet ice (4° C.) and a differential cell count using a Sysmex XT2000i vet cell analyser was performed before the BAL sample was centrifuged at 1300 rcf for 7 min. A 200 μL BAL supernatant sample was put in a polypropylene U bottom 96 well plate and frozen at −20° C. for subsequent cytokine analysis using a standard MSD protocol.
Data analysis was performed using Graphpad PRISM 6. The statistical tests applied to determine statistical significance were analysis of variance (ANOVA) followed by a post-hoc test or an unpaired T-test.

[4] = test system: THP-1 differentiated macrophages; assay: IL-10 release from LPS stimulated macrophages (alphaLISA); format: cell-based, human; details: 1 nM; top LPS doses 1-10 μg/mL; 6 hours after LPS stimulation
Method: THP-1 monocytic human cells were differentiated into macrophages with 50 nM phorbol myristate acetate for 48 hrs on a 96 well plate (100K cells/well).
Macrophages were stimulated with increasing concentrations of bacterial lipopolysaccharide (LPS 10^−6-10 μg/mL) in the presence or absence of SEQ ID NO:1 (1 nM). 30 μL of cell media was sampled at 6 hours after LPS stimulation and an IL-10 alphaLISA was run to measure the release of IL-10.

[5] = test system: dendritic cells from CD14+ monocytes of healthy donors; format: cell-based, human; details: 400 ng/mL + LPS/IFNγ
[6] = test system: ovalbumin sensitised BALB/c mice; details: mouse, in vivo
[7] = 48 hrs after Poly I:C challenge
[8] = 2 μg/kg i.n. single dose, 7 day time point, compared to saline/HDM
[9] = 2 μg/kg i.n. single dose, 14 day time point, 4 hrs post second HDM challenge, compared to saline/HDM
[10] = 2 μg/kg i.n., 14 days time point, compared to saline/HDM
[11] = 48 hrs after Poly I:C challenge, multiplex immunoassay

C[C@@H]1C[C@H]2[C@@H]3CCC4=CC(=O)C=C[C@]4(C)[C@@]3(F)[C@@H](O)C[C@]2(C)[C@@]1(O)C(=O)CO [Dex, Dexamethasone, reference compound]
Lymphocyte infiltration [1, 7]: no effect
Macrophage infiltration [1, 7]: no effect
Neutrophil infiltration [1, 7]: no effect
BAL Lymphocytes ([1]; 10 mg/kg ip): 9.4 ± 0.7 ×10^4/mL
BAL Macrophages ([1]; 10 mg/kg ip): 40.90 ± 0.2 ×10^4/mL
BAL Neutrophils ([1]; 10 mg/kg ip): 35.7 ± 2.6 ×10^4/mL

DGSVVVNKVSELPAGHGLNVNTLSYGDLAAD-OH [SEQ ID NO:1]
Recruitment of eosinophils [2]: significantly reduce the recruitment of eosinophils
BAL level of eosinophils [3, 8]: decreased level of neutrophils and eosinophils compared to saline/HDM although not statistically significant
BAL level of neutrophils [3, 8]: decreased level of neutrophils and eosinophils compared to saline/HDM although not statistically significant
BAL level of eosinophils [3, 9]: significantly decreased level
BAL level of lymphocytes [3, 9]: significantly decreased level
BAL level of neutrophils [3, 9]: significantly decreased level
BAL level of IL-4 [3, 10]: significant inhibition
BAL level of IL-5 [3, 10]: significant inhibition
BAL level of IL-13 [3, 10]: significant inhibition
BAL release of anti inflammatory cytokine IL-10 ([3]; 0.02, 0.2, 2 μg/kg i.n., 7 days time point, compared to saline/HDM): significant dose response release
BAL infiltrated macrophages ([3]; SEQ ID NO:1 treated groups (0.02-2 μg/kg i.n.), 7 day time point): trend to an increase of infiltrated macrophages
Lung viral titre [1, 7]: no significant effect
Lymphocyte infiltration [1, 7]: significantly and dose dependently reduced
Macrophage infiltration [1, 7]: significantly and dose dependently reduced
Neutrophil infiltration [1, 7]: significantly and dose dependently reduced
BAL G-CSF [1, 11]: significant suppression
BAL GM-CSF [1, 11]: significant suppression
BAL IFN-γ [1, 11]: significant suppression
BAL IL-1γ [1, 11]: significant suppression
BAL IL-6 [1, 11]: significant suppression
BAL IL-10 [1, 11]: significant suppression
BAL IL-17 [1, 11]: significant suppression
BAL KC/IL-8 [1, 11]: significant suppression
BAL MCP-1 [1, 11]: significant suppression
BAL MIP-1α [1, 11]: significant suppression
BAL MIP-3α [1, 11]: significant suppression
BAL TNF-α [1, 11]: significant suppression
BAL Lymphocytes ([1]; 80μ/kg iv): 7.4 ± 0.5 ×10^4/mL
BAL Macrophages ([1]; 80μ/kg iv): 40.3 ± 1.6 ×10^4/mL
BAL Neutrophils ([1]; 80μ/kg iv): 30 ± 2.2 ×10^4/mL
BAL Lymphocytes ([1]; 800μ/kg iv): 4.7 ± 0.5 ×10^4/mL
BAL Macrophages ([1]; 800μ/kg iv): 24.1 ± 1.6 ×10^4/mL
BAL Neutrophils ([1]; 800μ/kg iv): 15.3 ± 2.4 ×10^4/mL
Release of IL-10 [4]: potentiated the release of IL-10
IL-10 gene expression (LPS/IFNγ suppression) [5]: significantly attenuate the LPS/IFNγ suppression of the IL-10 gene
Circulating levels of peptide [6]: no longer detectable
Intensity of the inflammatory response (BAL total cells, eosinophils) [6]: significantly reduced
Recruitment of eosinophils after OVA re-challenge [6]: efficient in inhibiting the recruitment of eosinophils

DGSVVVNKVSEL-NH2 [SEQ ID NO:3]
BAL eosinophil number [6]: significantly reduced
BAL total number of cells [6]: significantly reduced
